Laboratory results as given in patent publication US20030224942A1, “Alkylamino-1,3,5-triazines, processes for their preparation and their use as herbicides and plant growth regulators” (priority 2001, published 2003).

Experiments:
[1] = system: Cyperus spp., Echinochloa spp., Digitaria spp., Sagitaria spp. and Scirpus spp.; test: Action on harmful plants in rice (paddy rice conditions, visual scoring); format: in vivo, typical rice weeds (gramineous and broad-leaved); settings: applied into the dammed water, visual scoring about three weeks after application
Method in brief: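 Under paddy conditions with 2-3 cm dammed water, transplanted and sown rice plus weeds were treated at three-leaf stage (E. crus-galli at 1.5 leaves). Pots stayed in greenhouse under optimum growth conditions for the test period, with visual assessment of damage.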

[2] = system: Chenopodium spp., Papaver spp., Polygonum spp., Veronica spp. or Viola spp.; test: Post-emergence effect on weeds (greenhouse pot test, visual scoring); format: in vivo, monocotyledonous and dicotyledonous weeds; settings: treated at three-leaf stage; visual scoring after about 3 to 4 weeks; application rate of 0.5 kg and less of active substance per hectare

## Cc1nc(N)nc(NC(C)c2cc(F)c(C(F)=C(F)F)c(F)c2)n1 (centres unmarked) [Product P2.49]
[1]
  herbicidal activity against harmful plants which are typical for rice crops: very good herbicidal activity
[2]
  herbicidal activity post-emergence against harmful plants: very good herbicidal activity

## CC#Cc1ccc(C(Nc2nc(N)nc(C(C)F)n2)C2CC2)cc1 (centres unmarked) [Product P24.1583]
[1]
  herbicidal activity against harmful plants which are typical for rice crops: very good herbicidal activity
[2]
  herbicidal activity post-emergence against harmful plants: very good herbicidal activity

## CCC(F)c1nc(N)nc(NCc2ccc(F)c(C(F)=C(F)F)c2)n1 (centres unmarked) [Product P26.5]
[1]
  herbicidal activity against harmful plants which are typical for rice crops: very good herbicidal activity
[2]
  herbicidal activity post-emergence against harmful plants: very good herbicidal activity

## CC#Cc1ccc(C(Nc2nc(N)nc(C(C)(C)F)n2)C2CC2)cc1 (centres unmarked) [Product P19.1583]
[1]
  herbicidal activity against harmful plants which are typical for rice crops: very good herbicidal activity
[2]
  herbicidal activity post-emergence against harmful plants: very good herbicidal activity

## CC#Cc1cc(C(C)Nc2nc(N)nc(CC)n2)ccc1F (centres unmarked) [Product P7.384]
[1]
  herbicidal activity against harmful plants which are typical for rice crops: very good herbicidal activity
[2]
  herbicidal activity post-emergence against harmful plants: very good herbicidal activity

## CCCCC#Cc1ccc(C(C)Nc2nc(N)nc(C(C)(C)F)n2)cc1 (centres unmarked) [Product P17.1595]
[1]
  herbicidal activity against harmful plants which are typical for rice crops: very good herbicidal activity
[2]
  herbicidal activity post-emergence against harmful plants: very good herbicidal activity

## C#Cc1ccc(C(C)Nc2nc(N)nc(C(C)F)n2)cc1F (centres unmarked) [Product P22.1620]
[1]
  herbicidal activity against harmful plants which are typical for rice crops: very good herbicidal activity
[2]
  herbicidal activity post-emergence against harmful plants: very good herbicidal activity

## C#Cc1cccc(C(C)Nc2nc(N)nc(C(F)CC)n2)c1 (centres unmarked) [Product P27.1579]
[1]
  herbicidal activity against harmful plants which are typical for rice crops: very good herbicidal activity
[2]
  herbicidal activity post-emergence against harmful plants: very good herbicidal activity

## CC(Nc1nc(N)nc(C(C)(C)F)n1)c1ccc(C(F)=C(F)F)cc1 (centres unmarked) [Product P17.1568]
[1]
  herbicidal activity against harmful plants which are typical for rice crops: very good herbicidal activity
[2]
  herbicidal activity post-emergence against harmful plants: very good herbicidal activity

## C#Cc1ccc(C(C)Nc2nc(N)nc(C(C)(C)F)n2)cc1C#C (centres unmarked) [Product P17.358]
[1]
  herbicidal activity against harmful plants which are typical for rice crops: very good herbicidal activity
[2]
  herbicidal activity post-emergence against harmful plants: very good herbicidal activity

## CCc1nc(N)nc(NC(C)c2cc(F)c(C(F)=C(F)F)c(F)c2)n1 (centres unmarked) [Product P7.49]
[1]
  herbicidal activity against harmful plants which are typical for rice crops: very good herbicidal activity
[2]
  herbicidal activity post-emergence against harmful plants: very good herbicidal activity

## CC#Cc1ccc(C(C)Nc2nc(N)nc(C(C)F)n2)cc1 (centres unmarked) [Product P22.1583]
[1]
  herbicidal activity against harmful plants which are typical for rice crops: very good herbicidal activity
[2]
  herbicidal activity post-emergence against harmful plants: very good herbicidal activity

## CC(C)(F)c1nc(N)nc(NC(c2ccc(C(F)=C(F)F)cc2)C2CC2)n1 (centres unmarked) [Product P19.1568]
[1]
  herbicidal activity against harmful plants which are typical for rice crops: very good herbicidal activity
[2]
  herbicidal activity post-emergence against harmful plants: very good herbicidal activity

## CC(C)c1nc(N)nc(NC(c2ccc(C(F)=C(F)F)cc2)C2CC2)n1 (centres unmarked) [Product P14.1568]
[1]
  herbicidal activity against harmful plants which are typical for rice crops: very good herbicidal activity
[2]
  herbicidal activity post-emergence against harmful plants: very good herbicidal activity

## CC(F)c1nc(N)nc(NC(C)c2ccc(F)c(C3CC3)c2)n1 (centres unmarked) [Product P22.916]
[1]
  herbicidal activity against harmful plants which are typical for rice crops: very good herbicidal activity
[2]
  herbicidal activity post-emergence against harmful plants: very good herbicidal activity

## CC(C)(F)c1nc(N)nc(NC(c2ccc(C3CC3)cc2)C2CC2)n1 (centres unmarked) [Product P19.1604]
[1]
  herbicidal activity against harmful plants which are typical for rice crops: very good herbicidal activity
[2]
  herbicidal activity post-emergence against harmful plants: very good herbicidal activity

## CC(Nc1nc(N)nc(C(C)(C)F)n1)c1cc(F)c(C(F)=C(F)F)c(F)c1 (centres unmarked) [Product P17.49]
[1]
  herbicidal activity against harmful plants which are typical for rice crops: very good herbicidal activity
[2]
  herbicidal activity post-emergence against harmful plants: very good herbicidal activity

## CC#Cc1cccc(CNc2nc(N)nc(C(C)(C)F)n2)c1 [Product P16.1582]
[1]
  herbicidal activity against harmful plants which are typical for rice crops: very good herbicidal activity
[2]
  herbicidal activity post-emergence against harmful plants: very good herbicidal activity

## CC#Cc1cc(C(Nc2nc(C)nc(N)n2)C2CC2)ccc1F (centres unmarked) [Product P4.384]
[1]
  herbicidal activity against harmful plants which are typical for rice crops: very good herbicidal activity
[2]
  herbicidal activity post-emergence against harmful plants: very good herbicidal activity

## CCc1nc(N)nc(NC(C)c2cc(F)c(C3CC3)c(F)c2)n1 (centres unmarked) [Product P7.960]
[1]
  herbicidal activity against harmful plants which are typical for rice crops: very good herbicidal activity
[2]
  herbicidal activity post-emergence against harmful plants: very good herbicidal activity

## CC(C)(F)c1nc(N)nc(NC(c2cccc(C(F)=C(F)F)c2)C2CC2)n1 (centres unmarked) [Product P19.1567]
[1]
  herbicidal activity against harmful plants which are typical for rice crops: very good herbicidal activity
[2]
  herbicidal activity post-emergence against harmful plants: very good herbicidal activity

## CC(F)c1nc(N)nc(NC(c2ccc(C(F)=C(F)F)cc2)C2CC2)n1 (centres unmarked) [Product P24.1568]
[1]
  herbicidal activity against harmful plants which are typical for rice crops: very good herbicidal activity
[2]
  herbicidal activity post-emergence against harmful plants: very good herbicidal activity

## CCc1nc(N)nc(NC(C)c2ccc(F)c(C(F)=C(F)F)c2)n1 (centres unmarked) [Product P7.5]
[1]
  herbicidal activity against harmful plants which are typical for rice crops: very good herbicidal activity
[2]
  herbicidal activity post-emergence against harmful plants: very good herbicidal activity

## CC(O)C#Cc1cc(C(C)Nc2nc(N)nc(C(C)(C)F)n2)ccc1F (centres unmarked) [Product P17.840]
[1]
  herbicidal activity against harmful plants which are typical for rice crops: very good herbicidal activity
[2]
  herbicidal activity post-emergence against harmful plants: very good herbicidal activity

## C#Cc1cccc(CNc2nc(N)nc(C(C)F)n2)c1 (centres unmarked) [Product P21.1579]
[1]
  herbicidal activity against harmful plants which are typical for rice crops: very good herbicidal activity
[2]
  herbicidal activity post-emergence against harmful plants: very good herbicidal activity

## CCC(F)c1nc(N)nc(NCc2cccc(C3CC3)c2)n1 (centres unmarked) [Product P26.1603]
[1]
  herbicidal activity against harmful plants which are typical for rice crops: very good herbicidal activity
[2]
  herbicidal activity post-emergence against harmful plants: very good herbicidal activity

## CCc1nc(N)nc(NC(C)c2ccc(C3CC3)cc2)n1 (centres unmarked) [Product P7.1604]
[1]
  herbicidal activity against harmful plants which are typical for rice crops: very good herbicidal activity
[2]
  herbicidal activity post-emergence against harmful plants: very good herbicidal activity

## Cc1nc(N)nc(NCc2cccc(C(F)=C(F)F)c2)n1 [Product P1.1567]
[1]
  herbicidal activity against harmful plants which are typical for rice crops: very good herbicidal activity
[2]
  herbicidal activity post-emergence against harmful plants: very good herbicidal activity

## C#Cc1cc(CNc2nc(N)nc(C(C)F)n2)ccc1F (centres unmarked) [Product P21.309]
[1]
  herbicidal activity against harmful plants which are typical for rice crops: very good herbicidal activity
[2]
  herbicidal activity post-emergence against harmful plants: very good herbicidal activity

## C#Cc1cc(CNc2nc(N)nc(C(C)(C)F)n2)ccc1F [Product P16.309]
[1]
  herbicidal activity against harmful plants which are typical for rice crops: very good herbicidal activity
[2]
  herbicidal activity post-emergence against harmful plants: very good herbicidal activity

## CCC(F)c1nc(N)nc(NCc2ccc(C(F)=C(F)F)cc2)n1 (centres unmarked) [Product P26.1568]
[1]
  herbicidal activity against harmful plants which are typical for rice crops: very good herbicidal activity
[2]
  herbicidal activity post-emergence against harmful plants: very good herbicidal activity
